Laboratory results published in US8703431B2, “Polypeptides for the in vitro assessment of the sensitising potential of a test compound” (Immunosearch, priority 2009, dated 2014).

Legend:
[1] = tested on: polypeptide of sequence SEQ ID NO: 18 (Ac-RFAAKAA-NH2); assay: HPLC test of % fixing of test compound on polypeptide (positive control peptide); format: binding; details: 0.5 mM polypeptide, 5 mM test compound, 100 mM ammonium acetate buffer pH 10.2, 30° C., 4 hours, darkness
Protocol: (§1) A test with 0.5 mM of polypeptide and 5 mM of test compound is carried out under the following conditions:
(§2) The reaction mixture containing 40 μl of peptide solution (1.25 mM stock solution in a 100 mM ammonium acetate buffer at pH 10.2 and the polypeptide of sequence SEQ ID NO: 18, SEQ ID NO: 7 in which X1, X2, X3 and X4 each represents a lysine, or SEQ ID NO: 8 in which X1, X2, X3 and X4 each represents a lysine), 35 μl of 100 mM ammonium acetate buffer solution, at pH 10.2, 20 μl of acetonitrile and 5 μl of solution to be tested (100 mM stock solution in acetonitrile or a 50% acetonitrile 50% DMSO mixture) was prepared and then stirred.
The sequence SEQ ID NO: 18, which is not a lipocalin derivative, was used as a positive control. This sequence corresponds to the following sequence:
(§3) The reaction mixture was then put to incubate at 30° C. for 4 hours and in darkness.
(§4) HPLC analysis was then carried out at a gradient of 10% to 45% of buffer B (acetonitrile+0.08% of trifluoroacetic acid (TFA)) in 20 minutes (buffer A: water+0.1% of TFA), rate 1 ml/minute. Detection was carried out under UV at 230 nm.
(§5) The control without allergen consisted of 40 μl of buffer solution.

[2] = biological target: T1, polypeptide SEQ ID NO: 8 in which X1, X2, X3 and X4 each represents a lysine (Mus musculus, UniProt O09114); assay: HPLC test of % fixing of test compound on polypeptide; format: binding; details: 5 mM test compound; for % fixing (mean), SEQ ID NO: 8 (X1-X4 lysine): Example 4; for fixing, SEQ ID NO: 8 (X1-X4 lysine), pH 8.3 / fixing, SEQ ID NO: 8 (X1-X4 lysine), pH 8.8 / fixing, SEQ ID NO: 8 (X1-X4 lysine), pH 9.2: Example 3; for fixing, SEQ ID NO: 8 (X1-X4 lysine), pH 8.3: twice 0.5 mM polypeptide (SEQ ID NO: 19 and 8), TRIS-HCl pH 8.3; for fixing, SEQ ID NO: 8 (X1-X4 lysine), pH 8.3 / fixing, SEQ ID NO: 8 (X1-X4 lysine), pH 9.2: 'Fixing' = fixing exists but not quantifiable; for fixing, SEQ ID NO: 8 (X1-X4 lysine), pH 8.8: TRIS-HCl pH 8.8; for fixing, SEQ ID NO: 8 (X1-X4 lysine), pH 9.2: TRIS-HCl pH 9.2
T1 construct: made in house; host or cells: chemical peptide synthesis (Fmoc)
T1 sequence (O09114 148-173 limits assumed): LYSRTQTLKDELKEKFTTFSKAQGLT
Protocol: as §1, §2, §3, §4, §5
(§6) The buffer used was 100 Mm TRIS-HCl at pH 8.3, pH 9.2 and pH 8.8.
(§7) The buffer used was TRIS-HCl at 100 mM.
(§8) A test with twice 0.5 mM of polypeptides of sequences SEQ ID NO: 19 and SEQ ID NO: 1 wherein X1, X2, X3 and X4 each represent a lysine, and having an NH2 group at its C-Terminal end, and SEQ ID NO: 8 wherein X1, X2, X3 and X4 each represent a lysine, and 5 mM of test compound, was carried out in accordance with the same protocol as that described for example 1.

[3] = skin sensitisation, as stated in the description; cited from earlier work
[4] = biological target: T2, polypeptide SEQ ID NO: 7 in which X1, X2, X3 and X4 each represents a lysine (Mus musculus, UniProt P11672, DEL176-176); assay: HPLC test of % fixing of test compound on polypeptide; format: binding; details: 0.5 mM polypeptide, 5 mM test compound, 100 mM ammonium acetate buffer pH 10.2, 30° C., 4 hours, darkness
T2 construct: made in house; host or cells: chemical peptide synthesis (Fmoc)
T2 sequence (P11672 with tags, fused parts or gaps DEL176-176 limits assumed): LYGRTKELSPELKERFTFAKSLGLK
Protocol: as §1, §2, §3, §4, §5

[5] = tested on: polypeptide of sequence SEQ ID NO: 19 (Ac-RFAACAA-NH2); assay: HPLC test of % fixing of test compound on polypeptide (positive control peptide); format: binding; details: 5 mM test compound; for fixing, SEQ ID NO: 19, pH 8.3 / fixing, SEQ ID NO: 19, pH 8.8 / fixing, SEQ ID NO: 19, pH 9.2: Example 3; for fixing, SEQ ID NO: 19, pH 8.3: twice 0.5 mM polypeptide (SEQ ID NO: 19 and 8), TRIS-HCl pH 8.3; for fixing, SEQ ID NO: 19, pH 8.3 / fixing, SEQ ID NO: 19, pH 8.8: 'Fixing' = fixing exists but not quantifiable; for fixing, SEQ ID NO: 19, pH 8.8: TRIS-HCl pH 8.8; for fixing, SEQ ID NO: 19, pH 9.2: TRIS-HCl pH 9.2; for % fixing (mean), SEQ ID NO: 19: Example 4
Protocol: as §1, §2, §3, §4, §5
A test with 0.5 mM of polypeptide of sequence […] and 5 mM of test compound was carried in accordance with the same protocol as that described for example 1.
The sequence SEQ ID NO: 19, which is not a lipocalin derivative, was used as a positive control. This sequence corresponds to the following sequence:
The buffer used was 100 mM TRIS-HCl at pH 8.3.
as §6, §7, §8

[6] = tested on: polypeptide SEQ ID NO: 1 wherein X1, X2, X3 and X4 each represent a lysine, having an NH2 group at its C-Terminal end; assay: HPLC test of % fixing of test compound on polypeptide; format: binding; details: for % fixing, SEQ ID NO: 1 (X1-X4 lysine, NH2 group at C-Terminal end): Example 5, 5 mM test compound, TRIS-HCl 100 mM, signal disturbed, preventing measurements greater than 82-83% fixing, these values represent a minimum; for precipitation of test compound during measurements with SEQ ID NO: 1: Example 5 conditions, explains the medium fixing results
Protocol: as §1, §2, §3, §4, §5, §8, §7
It should be noted, in the case of the tests of SEQ ID NO: 1, the signal was disturbed, preventing measurements greater than 82-83% fixing. These values consequently represent a minimum.
A coelution of the polypeptide with the allergens cinnamic aldehyde and 1,2-Benzisothiazolin-3-one was observed.

[7] = 0.5 mM polypeptide, 100 mM ammonium acetate buffer pH 10.2, 30° C., 4 hours, darkness
[8] = twice 0.5 mM polypeptide, TRIS-HCl 100 mM, 'Fixing' = not quantifiable
[9] = Example 5, twice 0.5 mM polypeptide, TRIS-HCl 100 mM, 'Fixing' = not quantifiable
[10] = twice 0.5 mM polypeptide, TRIS-HCl 100 mM
[11] = Example 5, twice 0.5 mM polypeptide, TRIS-HCl 100 mM
[12] = Example 2, 0.5 mM polypeptide, 100 mM TRIS-HCl pH 8.3

| SMILES | % fixing, SEQ ID NO: 18 [1] [%] | % fixing, SEQ ID NO: 8 (X1-X4 lysine) [2, 7] [%] | % fixing (mean), SEQ ID NO: 8 (X1-X4 lysine) [2, 8] | % fixing, SEQ ID NO: 8 (X1-X4 lysine) [2, 9] | sensitising capacity (sensitiser class) [3] | % fixing, SEQ ID NO: 7 (X1-X4 lysine) [4] [%] | fixing, SEQ ID NO: 8 (X1-X4 lysine), pH 8.3 [2] | fixing, SEQ ID NO: 8 (X1-X4 lysine), pH 8.8 ([2]; twice 0.5 mM polypeptide) [%] | fixing, SEQ ID NO: 8 (X1-X4 lysine), pH 9.2 ([2]; twice 0.5 mM polypeptide) | fixing, SEQ ID NO: 19, pH 8.3 [5] | fixing, SEQ ID NO: 19, pH 8.8 ([5]; twice 0.5 mM polypeptide) | fixing, SEQ ID NO: 19, pH 9.2 ([5]; twice 0.5 mM polypeptide) [%] | % fixing (mean), SEQ ID NO: 19 [5, 10] [%] | % fixing, SEQ ID NO: 19 [5, 11] [%] | % fixing, SEQ ID NO: 1 (X1-X4 lysine, NH2 group at C-Terminal end) [6] [%] | precipitation of test compound during measurements with SEQ ID NO: 1 [6] | % fixing, SEQ ID NO: 19 [5, 12] [%] |
| --- | --- | --- | --- | --- | --- | --- | --- | --- | --- | --- | --- | --- | --- | --- | --- | --- | --- |
| O=C/C=C/c1ccccc1 [CA, cinnamic aldehyde] | 17 | 30 | 30% | 30% | moderate sensitisers | 100 | – | – | – | – | – | – | – | – | – | – | – |
| CC(O)C(=O)O (stereo not shown) [LA, lactic acid] | – | – | 0% | 0% | non-sensitising | – | 0% | 0 | 0% | 0% | 0% | 0 | 0 | 0 | 1 | – | – |
| O=CCc1ccccc1 [PA, phenylacetaldehyde] | – | – | Fixing | Fixing | moderate sensitisers | – | Fixing | 0 | 21% | 100% | – | 86 | 81 | 81 | 54 | very greatly precipitated | – |
| Clc1ccccc1 [Cbz, chlorobenzene] | 0 | 0 | 0% | 0% | non-sensitising | 0 | – | – | – | – | – | – | 0 | 0 | 7.5 | – | 0 |
| CC(C)=CCCC(C)=CC=O [Cal, citral] | – | – | 70% | 70% | moderate sensitisers | – | – | – | – | – | – | – | 46 | 46 | 64 | – | 70 |
| CCCCCCCCCCCCOC(=O)c1cc(O)c(O)c(O)c1 [LG, lauryl gallate] | 62 | 63 | 62% | 62% | strong sensitisers | 100 | – | – | – | – | – | – | 100 | 100 | 41.5 | very greatly precipitated | 100 |
| CC(C=O)Cc1ccc(C(C)(C)C)cc1 (stereo not shown) [Li, lilial] | – | – | 0% | 0% | weak sensitiser | – | 0% | – | – | 36% | – | 0 | 18 | 18 | 12 | – | – |
| O=CCCCC=O [GA, glutaraldehyde] | – | – | 50% | 50% | strong sensitisers | – | 50% | 100 | 50% | 22% | Fixing | 33 | 33 | 33 | 83 | – | – |
| O=c1c(-c2ccccc2)c1-c1ccccc1 [DPCP, diphenylcyclopropenone] | – | – | – | – | extremely strong sensitiser | – | – | – | – | – | – | – | 100 | 100 | 83.5 | – | 96 |
| O=c1[nH]sc2ccccc12 [Ben, 1,2-benzisothiazolin-3-one] | – | – | – | – | moderate sensitisers | – | 100% | 100 | 0% | Fixing | Fixing | – | 90 | 90 | – | – | – |
| Oc1ccc(O)cc1 [HQ, 1,4-hydroquinone] | – | – | 100% | 100% | strong sensitisers | – | 100% | 100 | Fixing | 100% | – | – | 90 | 90 | 82.5 | – | – |
| CN(C)CCCN [3-DMAPA, 3-3-dimethylaminopropylamine] | – | – | 6% | 6% | moderate sensitisers | – | – | – | – | – | – | – | 15 | 15 | 3 | – | 25 |
